In ChEMBL document CHEMBL1146924, “Beta-diketo acids with purine nucleobase scaffolds: novel, selective inhibitors of the strand transfer step of HIV integrase” (Bioorg Med Chem Lett, 2006):

Legend:
[1] = target: T1, Human immunodeficiency virus type 1 integrase (Human immunodeficiency virus 1, UniProt Q7ZJM1); assay: Inhibition of HIV1 integrase 3'-processing step
[2] = target: T1, Human immunodeficiency virus type 1 integrase; assay: Inhibition of HIV1 integrase strand transfer step

T1 sequence (Q7ZJM1 whole entry): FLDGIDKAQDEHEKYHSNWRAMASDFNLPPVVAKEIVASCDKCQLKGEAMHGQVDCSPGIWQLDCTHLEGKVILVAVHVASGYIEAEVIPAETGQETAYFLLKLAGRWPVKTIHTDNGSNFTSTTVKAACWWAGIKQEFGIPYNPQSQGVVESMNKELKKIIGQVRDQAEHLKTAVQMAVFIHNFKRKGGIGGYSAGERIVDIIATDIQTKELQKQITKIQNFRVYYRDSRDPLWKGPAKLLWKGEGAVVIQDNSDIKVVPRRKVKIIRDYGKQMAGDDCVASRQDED

| SMILES | IC50 [1] [µM] | IC50 [2] [µM] |
| --- | --- | --- |
| O=C(O)C(=O)/C=C(/O)c1nc2cncnc2n1Cc1ccccc1 | 100 | 10 |
| O=C(O)C(=O)/C=C(/O)c1nc2c(=O)n(Cc3ccccc3)cnc2n1Cc1ccccc1 | 31.5 | 4.1 |
| O=C(O)C(=O)/C=C(\O)c1ncnc2c1ncn2Cc1ccccc1 | 1000 | 790 |
| O=C(O)C(=O)/C=C(\O)c1nc2c(ncn2Cc2ccccc2)c(=O)n1Cc1ccccc1 | 30 | 2.7 |
